Reference: US12448369B2 (Edgewise Therapeutics, Inc., priority 2023, dated 2025)
Marks after values point to notes of the source that are not given here.

Key:
[1] = tested on: Rabbit Psoas myofibrils (skeletal myosin ATPase); assay: Myofibril ATPase assay, rabbit psoas (skeletal) myofibrils; format: biochemical
Protocol: (§1) Example 1. Myofibril ATPase Assay
(§2) Myofibril ATPase assays are known in the art to be useful in evaluating small molecules for the treatment of HCM and other cardiac indications. Myosin ATPase activity is assessed by using a coupled reaction system, in which ADP generated by the myosin ATPase function is coupled to the disappearance of NADH through the pyruvate kinase/lactate dehydrogenase (PK-LDH) system. ATPase activity produces ADP, which is used as a substrate for PK to produce pyruvate and regenerate ATP. The pyruvate is then used as a substrate by LDH to oxidize NADH to NAD+. The rate of the reaction is monitored through the time-dependent disappearance of NADH using absorbance at 340 nm, which, when the couple system is in stoichiometric excess, is directly correlated to the ATPase activity of the myosin. Inhibition of ATPase activity by the assayed compounds is indicated by a reduced rate of NADH loss, relative to vehicle-treated controls, over the experimental time window. Activation of ATPase activity by the assayed compounds is indicated by an increased rate of NADH loss, relative to vehicle-treated controls, over the experimental time window. Rabbit Psoas, Porcine atria, and Porcine ventricle are the primary sources of myofibril material.
(§3) Materials: The following stock solutions and reagents were used in the Myofibril ATPase Assay:
(§4) Stock Solutions of pCa buffer. Combine PIPES, CaCl2, and EGTA solutions with water. Adjust pH to 7.0 and bring final volume to 100 mL.
(§5) Buffer A & Buffer B. Prepare buffers A and B according to the table below.
(§6) Myofibril ATPase Assay Procedure: BSA, ATP, NADH, PEP, and DTT solutions were thawed at room temperature, then transferred to ice. Pellet-frozen myofibrils were transferred with approximately twice the required volume into a sufficiently large tube and capped. Myofibrils were thawed by rolling in a water bath for approximately 15 min at room temperature and cooled on ice. Buffers A and B were prepared by adjusting volumes as necessary for required number of wells and stored on ice. 0.5 μL of the compounds to be assayed were added into wells. 25 μL of Buffer A was dispensed into the wells, followed by 25 μL of Buffer B. The wells were measured for absorbance at 340 nm, using a kinetic protocol in which the wells are read every 1.5-2 min for 75 min. Assay data analysis was performed using a python script that filtered the raw data to retain those points falling between a starting and ending time and between a maximum and minimum absorbance, then used the filtered time-domain 340 nm absorbance data in each well to calculate a slope via linear regression analysis in units of mAU/min. Compound slopes were normalized between 100% and 0% activity, where 100% represented the slope of wells containing only compound vehicle, and fit to a 4-parameter logistic model. In addition to the fit parameters, the EC25% values were calculated, relative to the 100% normalized value. Additionally, the Y125 values were calculated for compounds that increased myosin ATP-ase activity. Fit parameters, calculated effective concentrations, filtered raw data, and calculated slopes were exported, in addition to compound-specific graphs of normalized ATPase activity versus concentration in μM. Each value reported in Table 5, Table 6, and Table 7 is either a Y75 value or a Y125 value. Values without a double cross sign, ‡, are Y75 values, which reflect the concentration required to reduce myosin ATP-ase activity by 25% (e.g., Y-axis activity value is 75% of initial value), relative to myosin ATP-ase activity in the absence of exogenous compound.
Skeletal Myofibril Isolation:
(§7) Myofibrils from various animals and tissue types were acquired from a variety of sources: rabbit psoas muscle was purchased from Pel-Freez Biologicals (Rogers, AR) and porcine cardiac muscle was purchased from Exemplar Genetics. All myofibrils were prepared using a method based upon those described in Herrmann et al. (1993) and summarized here. […]

[2] = tested on: Porcine atria myofibrils (atrial myosin ATPase); assay: Myofibril ATPase assay, porcine atria myofibrils; format: biochemical
Protocol: as §1, §2, §3, §4, §5, §6, §7

[3] = target: T1, Porcine ventricle myofibrils (ventricular myosin ATPase) (Sus scrofa, UniProt P79293); assay: Myofibril ATPase assay, porcine ventricle myofibrils; format: biochemical, porcine (Yucatan minipigs)
T1 construct: Myofibrils from porcine cardiac muscle was isolated from the left ventricle of Yucatan minipigs; tissue Exemplar Genetics; host or cells: left ventricle of Yucatan minipigs, myofibrils prepared in house
Protocol: as §1, §2, §3, §4, §5, §6
Cardiac Myofibril Isolation:
Myofibrils from porcine cardiac muscle was isolated from the left ventricle of Yucatan minipigs. Myofibrils were prepared using a method based upon those described in Herrmann et al. (1993) and summarized here. […]

[4] = Y75 value (no ‡ mark), rabbit psoas myofibrils
[5] = Y75 value (no ‡ mark), porcine atria myofibrils
[6] = Y75 value (no ‡ mark), porcine ventricle myofibrils
[7] = ‡ Y125 value, not a Y75 value (125% activity relative to no compound), rabbit psoas myofibrils
[8] = ‡ Y125 value, not a Y75 value (125% activity relative to no compound), porcine ventricle myofibrils
[9] = porcine ventricle myofibrils, Y75 value

T1 sequence (P79293 whole entry): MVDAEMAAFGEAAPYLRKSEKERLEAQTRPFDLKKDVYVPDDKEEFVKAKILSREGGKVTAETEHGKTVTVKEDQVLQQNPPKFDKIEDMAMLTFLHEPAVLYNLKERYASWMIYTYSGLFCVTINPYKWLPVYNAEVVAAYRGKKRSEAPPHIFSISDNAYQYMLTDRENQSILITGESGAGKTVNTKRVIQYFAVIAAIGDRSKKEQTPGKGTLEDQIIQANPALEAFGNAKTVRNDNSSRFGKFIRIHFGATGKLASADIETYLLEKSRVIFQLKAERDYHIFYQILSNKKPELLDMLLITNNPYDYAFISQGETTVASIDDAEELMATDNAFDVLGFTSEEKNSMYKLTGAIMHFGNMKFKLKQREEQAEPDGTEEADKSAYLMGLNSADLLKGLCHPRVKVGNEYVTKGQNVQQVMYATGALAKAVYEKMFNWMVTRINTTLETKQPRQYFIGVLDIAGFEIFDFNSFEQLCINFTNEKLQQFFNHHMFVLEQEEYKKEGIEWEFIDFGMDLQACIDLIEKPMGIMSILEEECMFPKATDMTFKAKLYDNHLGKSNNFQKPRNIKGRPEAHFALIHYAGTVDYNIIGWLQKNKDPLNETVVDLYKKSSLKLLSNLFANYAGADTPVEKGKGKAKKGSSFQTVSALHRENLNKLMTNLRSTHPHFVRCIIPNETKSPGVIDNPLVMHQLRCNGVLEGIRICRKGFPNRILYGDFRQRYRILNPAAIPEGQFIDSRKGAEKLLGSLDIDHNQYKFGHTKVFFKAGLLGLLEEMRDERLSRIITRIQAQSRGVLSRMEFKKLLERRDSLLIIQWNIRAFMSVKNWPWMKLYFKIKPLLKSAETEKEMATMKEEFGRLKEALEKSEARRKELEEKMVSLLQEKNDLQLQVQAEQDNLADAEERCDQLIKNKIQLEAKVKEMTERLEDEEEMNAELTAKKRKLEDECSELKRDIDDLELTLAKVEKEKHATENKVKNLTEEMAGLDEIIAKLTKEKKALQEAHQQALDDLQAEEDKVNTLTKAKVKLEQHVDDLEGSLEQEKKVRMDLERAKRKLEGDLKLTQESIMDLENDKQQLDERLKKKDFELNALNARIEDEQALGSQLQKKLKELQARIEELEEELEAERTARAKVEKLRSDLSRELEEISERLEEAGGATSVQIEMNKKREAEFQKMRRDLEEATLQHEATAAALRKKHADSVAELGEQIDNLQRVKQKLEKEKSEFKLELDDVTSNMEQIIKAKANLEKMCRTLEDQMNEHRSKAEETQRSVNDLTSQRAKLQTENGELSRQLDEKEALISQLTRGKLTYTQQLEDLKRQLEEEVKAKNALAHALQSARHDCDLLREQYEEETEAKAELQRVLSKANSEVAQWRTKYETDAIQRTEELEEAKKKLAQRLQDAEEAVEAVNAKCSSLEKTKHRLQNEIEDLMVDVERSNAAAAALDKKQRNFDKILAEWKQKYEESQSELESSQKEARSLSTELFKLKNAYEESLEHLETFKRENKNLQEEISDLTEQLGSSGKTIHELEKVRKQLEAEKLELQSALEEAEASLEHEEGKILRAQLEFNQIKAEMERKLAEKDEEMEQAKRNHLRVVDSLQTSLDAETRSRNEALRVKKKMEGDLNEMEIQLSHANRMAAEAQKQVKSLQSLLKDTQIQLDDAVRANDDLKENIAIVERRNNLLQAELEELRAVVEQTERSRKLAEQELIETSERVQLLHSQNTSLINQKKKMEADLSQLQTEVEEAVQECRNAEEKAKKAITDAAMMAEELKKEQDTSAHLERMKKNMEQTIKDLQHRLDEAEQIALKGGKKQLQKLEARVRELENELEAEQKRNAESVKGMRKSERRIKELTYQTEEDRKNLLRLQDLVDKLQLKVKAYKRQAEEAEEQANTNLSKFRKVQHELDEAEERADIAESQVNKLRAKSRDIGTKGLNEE

Compound | Skeletal EC25 [1, 4] [µM] | Atrial EC25 [2, 5] [µM] | Ventricular EC25 [3, 6] [µM] | other results
Cc1c(F)ccc2[nH]c(=O)c(C(F)(F)C(=O)N[C@H](C)c3ncc(C#N)cn3)c(C#N)c12 (single isomer, unassigned) [Compound 2511] | 0.28 | 0.76 | 2.64 | 
Cc1c(C(F)(F)C(=O)N[C@H](C)c2ncc(C#N)cn2)c(=O)[nH]c2ccc(F)c(C(F)(F)F)c12 (single isomer, unassigned) [Compound 2513] | 0.34 | 0.43 | 1.62 | 
Cc1c(C(F)(F)C(=O)N[C@@H](C)c2ncc(C#N)cn2)c(=O)[nH]c2ccc(F)c(C(F)(F)F)c12 (single isomer, unassigned) [Compound 2514] | 0.16 | 0.60 | 1.53 | 
C[C@@H](NC(=O)C(F)(F)c1cc2c(C#N)c(F)ccc2[nH]c1=O)c1ncc(C#N)cc1F (single isomer, unassigned) [Compound 2529] | 0.24 | 0.24 | 0.35 | 
C[C@H](NC(=O)C(F)(F)c1cc2c(C#N)c(F)ccc2[nH]c1=O)c1ncc(C#N)cc1F (single isomer, unassigned) [Compound 2530] | 0.08 | 0.20 | 0.21 | 
CC(NC(=O)C1(c2cc3c(F)c(F)ccc3[nH]c2=O)CC1)c1cccc(C#N)n1 (single isomer, unassigned) [Compound 2569] | 100.00 | 4.84 | 100.00 | 
CC(NC(=O)C1(c2cc3c(F)c(F)ccc3[nH]c2=O)CC1)c1cccc(C#N)n1 (single isomer, unassigned) [Compound 2570] |  |  |  | Skeletal EC25 [1, 7]: 26.03‡ μM; Atrial EC25 ([2]; ‡ Y125 value, not a Y75 value (125% activity relative to no compound), porcine atria myofibrils): 100.00‡ μM; Ventricular EC25 [3, 8]: 63.85‡ μM
CC(NC(=O)C(F)(F)c1cc2cc(F)ccc2[nH]c1=O)c1cc(C#N)ccn1 (single isomer, unassigned) [Compound 2573] | 100.00 | 100.00 | 100.00 | 
Cc1c(C2(C(=O)NC(C)c3cccc(C#N)n3)CC2)c(=O)[nH]c2ccc(F)cc12 (single isomer, unassigned) [Compound 2580] |  | 4.52 | 100.00 | Skeletal EC25 [1, 7]: 17.17‡ μM
Cc1c(C(F)(F)C(=O)NC(C)c2cccc(C#N)n2)c(=O)[nH]c2ccc(F)c(F)c12 (single isomer, unassigned) [Compound 2587] | 5.65 | 5.60 | 100.00 | 
Cc1c(C(F)(F)C(=O)NC(C)c2cccc(C#N)n2)c(=O)[nH]c2ccc(F)c(F)c12 (single isomer, unassigned) [Compound 2588] |  | 100.00 |  | Skeletal EC25 [1, 7]: 19.03‡ μM; Ventricular EC25 [3, 8]: 67.27‡ μM
Cc1c(C(F)(F)C(=O)N[C@@H](C)c2nc(C#N)cs2)c(=O)[nH]c2ccc(F)cc12 (single isomer, unassigned) [Compound 4010] |  |  |  | Skeletal EC25 ([1]; Y75 value: concentration required to reduce myosin ATP-ase activity by 25%, Rabbit Psoas Prep pCa 25 GEOM_MEAN): 2.38 µM; Atrial EC25 ([2]; Y75 value: concentration required to reduce myosin ATP-ase activity by 25%, Porcine Atria Prep pCa 25 GEOM_MEAN): 0.74 µM; Ventricular EC25 ([3]; Y75 value: concentration required to reduce myosin ATP-ase activity by 25%, Porcine Ventricle Prep pCa 25 GEOM_MEAN): 19.76 µM
Cc1nc(C#N)cnc1[C@@H](C)NC(=O)Cc1c(C)c2c(C#N)c(F)ccc2[nH]c1=O (single isomer, unassigned) [compound 1] | 0.11 | 0.07 | 0.14 | 
Cc1nc(C#N)cnc1[C@H](C)NC(=O)Cc1c(C)c2c(C#N)c(F)ccc2[nH]c1=O (single isomer, unassigned) [compound 2] | 0.02 | 0.09 | 0.08 | 
C[C@H](NC(=O)[C@H](C)c1cc2c(C3CC3)nccc2[nH]c1=O)c1ccc(F)cc1F (single isomer, unassigned) [compound 3506] |  |  |  | Skeletal EC25 (Y125 value, marked ‡) ([1]; rabbit psoas myofibrils, Y125 value, not a Y75 value): 108.50‡ μM; Ventricular EC25 [3, 9]: 100.00 µM
C[C@H](NC(=O)Cc1cc2c(O)nccc2[nH]c1=O)c1ccc(F)cc1F [compound 3013] |  |  |  | Skeletal EC25 ([1]; rabbit psoas myofibrils, Y75 value): 100.00 µM; Ventricular EC25 [3, 9]: 100.00 µM

Further lines, with some results ahead:

Skeletal EC25 [1, 4] [µM] | Atrial EC25 [2, 5] [µM] | Ventricular EC25 [3, 6] [µM] | Compound | other results
100.00 | 0.67 | 100.00 | Cc1c([C@@H](C)C(=O)N[C@H](C)c2ncc(C#N)cc2F)c(=O)[nH]c2ccc(F)c(F)c12 (relative stereo) [compound 2600, Rel-(2R*)-N-[(1R)-1-(5-cyano-3-fluoropyridin-2-yl)ethyl]-2-(5,6-difluoro-4-methyl-2-oxo-1H-quinolin-3-yl) propanamide] | 
0.02 | 0.05 | 0.08 | Cc1c([C@@H](C)C(=O)N[C@@H](C)c2ncc(C#N)cc2F)c(=O)[nH]c2ccc(F)c(F)c12 (relative stereo) [compound 2602, rel-(2R*)-N-[(1S)-1-(5-cyano-3-fluoropyridin-2-yl)ethyl]-2-(5,6-difluoro-4-methyl-2-oxo-1H-quinolin-3-yl) propanamide] | 
0.54 | 0.12 | 0.75 | C[C@H](NC(=O)[C@H](C)c1cc2c(F)c(F)ccc2[nH]c1=O)c1ncc(C#N)cc1F (relative stereo) [compound 2604, (2R*)-N-[(1S)-1-(5-cyano-3-fluoropyridin-2-yl)ethyl]-2-(5,6-difluoro-2-oxo-1H-quinolin-3-yl)propanamide] | 
2.33 | 3.40 | 0.31 | C[C@@H](NC(=O)Cc1cc2cc(F)c(F)cc2[nH]c1=O)c1ncc(C#N)cc1F (single isomer, unassigned) [compound 3] | 
0.15 | 4.38 | 0.96 | C[C@H](NC(=O)Cc1cc2cc(F)c(F)cc2[nH]c1=O)c1ncc(C#N)cc1F (single isomer, unassigned) [compound 4] | 
 | 0.05 | 0.10 | Cc1c(Cl)ccc2[nH]c(=O)c(CC(=O)N[C@@H](C)c3ncc(C#N)cc3F)c(C)c12 (single isomer, unassigned) [compound 2046] | 
 | 0.09 | 0.20 | Cc1c(C(F)(F)C(=O)N[C@H]2COc3cc(C#N)cc(F)c32)c(=O)[nH]c2ccc(F)cc12 (single isomer, unassigned) [compound 2554] | 
0.82 |  | 1.39 | Cc1cc(F)cnc1[C@@H](C)NC(=O)C(F)(F)c1c(C)c2cc(F)ccc2[nH]c1=O (single isomer, unassigned) [compound 4807] | 
100.00 |  | 100.00 | Cc1cc(F)cnc1[C@H](C)NC(=O)C(F)(F)c1c(C)c2cc(F)ccc2[nH]c1=O (single isomer, unassigned) [compound 4808] | 
